Legend:
Experiment in all cases: relative viability (nuclei count vs DMSO), 5 days (fraction); higher = more cells survive
CAL-12T = system: CAL-12T
How it was run: (§1)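 Lung cancer cell lines in 1536-well plates were dosed by pin tool the day after seeding, either with one drug alone or with a fixed anchor-drug dose plus five library-drug doses (not always all listed) in √10 steps. After 5 days, cells were fixed and their nuclei stained in one step (final 0.05% Triton X-100, 1% formaldehyde, 1 ug/ml Hoechst), then counted on 4× images. Relative viability is the nuclei count in treated wells divided by that in vehicle wells. Values are medians of duplicate plates.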

COR-L 105 = system: COR-L 105
How it was run: as §1

NCI-H838 = system: NCI-H838
How it was run: as §1

NCI-H1666 = system: NCI-H1666
How it was run: as §1

PC-14 = system: PC-14
How it was run: as §1

NCI-H1993 = system: NCI-H1993
How it was run: as §1

NCI-H1975 = system: NCI-H1975
How it was run: as §1

HCC-366 = system: HCC-366
How it was run: as §1

NCI-H1734 = system: NCI-H1734
How it was run: as §1

NCI-H1395 = system: NCI-H1395
How it was run: as §1

HARA = system: HARA
How it was run: as §1

NCI-H522 = system: NCI-H522
How it was run: as §1

NCI-H647 = system: NCI-H647
How it was run: as §1

HCC-15 = system: HCC-15
How it was run: as §1

H3255 = system: H3255
How it was run: as §1

PC-3 [JPC-3] = system: PC-3 [JPC-3]
How it was run: as §1

NCI-H3122 = system: NCI-H3122
How it was run: as §1

SK-LU-1 = system: SK-LU-1
How it was run: as §1

LC-2-ad = system: LC-2-ad
How it was run: as §1

NCI-H1944 = system: NCI-H1944
How it was run: as §1

LU99A = system: LU99A
How it was run: as §1

COCC1(CO)C(=O)C2CCN1CC2 (stereo not drawn) [PRIMA-1MET] + CC(=O)Nc1cccc(-n2c(=O)n(C3CC3)c(=O)c3c(Nc4ccc(I)cc4F)n(C)c(=O)c(C)c32)c1 [Trametinib] (partner 0.02 µM)
relative viability (CAL-12T; first compound 0.2 µM): 0.274
relative viability (CAL-12T; first compound 0.6325 µM): 0.319
relative viability (CAL-12T; first compound 2 µM): 0.313
relative viability (CAL-12T; first compound 6.325 µM): 0.235
relative viability (CAL-12T; first compound 20 µM): 0.15
relative viability (COR-L 105; first compound 0.2 µM): 0.464
relative viability (COR-L 105; first compound 0.6325 µM): 0.421
relative viability (COR-L 105; first compound 2 µM): 0.378
relative viability (COR-L 105; first compound 6.325 µM): 0.438
relative viability (COR-L 105; first compound 20 µM): 0.108
relative viability (NCI-H838; first compound 0.2 µM): 0.55
relative viability (NCI-H838; first compound 0.6325 µM): 0.523
relative viability (NCI-H838; first compound 2 µM): 0.416
relative viability (NCI-H838; first compound 6.325 µM): 0.553
relative viability (NCI-H838; first compound 20 µM): 0.557
relative viability (NCI-H1666; first compound 0.2 µM): 0.886
relative viability (NCI-H1666; first compound 0.6325 µM): 0.815
relative viability (NCI-H1666; first compound 2 µM): 0.965
relative viability (NCI-H1666; first compound 6.325 µM): 0.759
relative viability (NCI-H1666; first compound 20 µM): 0.877
relative viability (PC-14; first compound 0.2 µM): 0.921
relative viability (PC-14; first compound 0.6325 µM): 0.618
relative viability (PC-14; first compound 2 µM): 0.97
relative viability (PC-14; first compound 6.325 µM): 0.693
relative viability (PC-14; first compound 20 µM): 0.615
relative viability (NCI-H1993; first compound 0.2 µM): 0.619
relative viability (NCI-H1993; first compound 2 µM): 0.588
relative viability (NCI-H1993; first compound 6.325 µM): 0.534
relative viability (NCI-H1993; first compound 20 µM): 0.514
relative viability (NCI-H1975; first compound 0.2 µM): 0.362
relative viability (NCI-H1975; first compound 0.6325 µM): 0.232
relative viability (NCI-H1975; first compound 2 µM): 0.277
relative viability (NCI-H1975; first compound 6.325 µM): 0.351
relative viability (NCI-H1975; first compound 20 µM): 0.457
relative viability (HCC-366; first compound 0.2 µM): 0.288
relative viability (HCC-366; first compound 0.6325 µM): 0.289
relative viability (HCC-366; first compound 2 µM): 0.263
relative viability (HCC-366; first compound 6.325 µM): 0.431
relative viability (HCC-366; first compound 20 µM): 0.0205
relative viability (NCI-H1734; first compound 0.2 µM): 0.564
relative viability (NCI-H1734; first compound 0.6325 µM): 0.622
relative viability (NCI-H1734; first compound 2 µM): 0.584
relative viability (NCI-H1734; first compound 6.325 µM): 0.581
relative viability (NCI-H1734; first compound 20 µM): 0.0425
relative viability (NCI-H1395; first compound 0.2 µM): 1.14
relative viability (NCI-H1395; first compound 2 µM): 0.979
relative viability (NCI-H1395; first compound 6.325 µM): 1.02
relative viability (NCI-H1395; first compound 20 µM): 1.05
relative viability (HARA; first compound 0.2 µM): 0.403
relative viability (HARA; first compound 0.6325 µM): 0.754
relative viability (HARA; first compound 2 µM): 0.647
relative viability (HARA; first compound 6.325 µM): 0.529
relative viability (HARA; first compound 20 µM): 0.736
relative viability (NCI-H522; first compound 0.2 µM): 0.655
relative viability (NCI-H522; first compound 0.6325 µM): 0.673
relative viability (NCI-H522; first compound 2 µM): 0.528
relative viability (NCI-H522; first compound 6.325 µM): 0.717
relative viability (NCI-H522; first compound 20 µM): 0.121
relative viability (NCI-H647; first compound 0.2 µM): 0.306
relative viability (NCI-H647; first compound 0.6325 µM): 0.537
relative viability (NCI-H647; first compound 2 µM): 0.279
relative viability (NCI-H647; first compound 6.325 µM): 0.456
relative viability (NCI-H647; first compound 20 µM): 0.413
relative viability (HCC-15; first compound 0.2 µM): 0.37
relative viability (HCC-15; first compound 0.6325 µM): 0.346
relative viability (HCC-15; first compound 2 µM): 0.37
relative viability (HCC-15; first compound 6.325 µM): 0.328
relative viability (HCC-15; first compound 20 µM): 0.31
relative viability (H3255; first compound 0.2 µM): 0.51
relative viability (H3255; first compound 0.6325 µM): 0.625
relative viability (H3255; first compound 2 µM): 0.57
relative viability (H3255; first compound 6.325 µM): 0.575
relative viability (H3255; first compound 20 µM): 0.55
relative viability (PC-3 [JPC-3]; first compound 0.2 µM): 0.757
relative viability (PC-3 [JPC-3]; first compound 0.6325 µM): 0.667
relative viability (PC-3 [JPC-3]; first compound 2 µM): 0.733
relative viability (PC-3 [JPC-3]; first compound 6.325 µM): 0.696
relative viability (PC-3 [JPC-3]; first compound 20 µM): 0.614
relative viability (NCI-H3122; first compound 0.2 µM): 0.148
relative viability (NCI-H3122; first compound 0.6325 µM): 0.237
relative viability (NCI-H3122; first compound 2 µM): 0.24
relative viability (NCI-H3122; first compound 6.325 µM): 0.17
relative viability (NCI-H3122; first compound 20 µM): 0.191
relative viability (SK-LU-1; first compound 0.2 µM): 0.308
relative viability (SK-LU-1; first compound 0.6325 µM): 0.488
relative viability (SK-LU-1; first compound 2 µM): 0.35
relative viability (SK-LU-1; first compound 6.325 µM): 0.382
relative viability (SK-LU-1; first compound 20 µM): 0.528
relative viability (LC-2-ad; first compound 0.2 µM): 0.82
relative viability (LC-2-ad; first compound 0.6325 µM): 0.914
relative viability (LC-2-ad; first compound 2 µM): 0.924
relative viability (LC-2-ad; first compound 6.325 µM): 0.878
relative viability (LC-2-ad; first compound 20 µM): 0.905
relative viability (NCI-H1944; first compound 0.2 µM): 0.366
relative viability (NCI-H1944; first compound 0.6325 µM): 0.349
relative viability (NCI-H1944; first compound 2 µM): 0.407
relative viability (NCI-H1944; first compound 6.325 µM): 0.387
relative viability (NCI-H1944; first compound 20 µM): 0.425
relative viability (LU99A; first compound 0.2 µM): 0.314
relative viability (LU99A; first compound 0.6325 µM): 0.573
relative viability (LU99A; first compound 2 µM): 0.502
relative viability (LU99A; first compound 6.325 µM): 0.261
relative viability (LU99A; first compound 20 µM): 0.21
